Reference: patent US10214710B2, “Intercalated bleach compositions, related methods of manufacture and use” (The Clorox Company, priority 2013, dated 2019)

How the values were obtained:
[1] = Relative ratings of solid hypochlorite bleach products; conditions: relative rating
[2] = Differential scanning calorimetry (DSC) thermodynamic stability and adjuvant compatibility; type: physicochemical
[3] = Humidity stability, storage at 80° F. and 80% relative humidity; type: physicochemical
Description: In addition to the stability testing described above, the magnesium intercalated bleach compositions were tested for their resistance to humidity (i.e., their ability to resist degradation upon exposure to humidity). The results were compared with the humidity stability of alternative solid hypochlorite releasing products, specifically dibasic magnesium hypochlorite and a mixture of calcium hypochlorite and magnesium oxide. […] As shown, the initial weight percent hypochlorite was measured. Some samples were stored open, while others were stored closed, and the weight percentage of remaining hypochlorite was measured after the 2 month storage.
Two MIB samples were tested.

[4] = pH buffering and hypochlorite release on HCl addition; type: physicochemical
Description: The buffering characteristics of the MIB compositions, as well as the ability to accelerate release of hypochlorite through addition of an acid were tested. It is believed that the MgO and/or Mg(OH)2 component present within the intercalated bleach compound acts to buffer the pH to a preferred region (e.g., about 8 to about 11.5) for enhanced hypochlorite stability. FIG. 4A plots the pH profile over time as hydrochloric acid (HCl) is added to the MIB aqueous solution at periodic intervals.
FIG. 4B plots the concentration of hypochlorite in solution (ppm of OCl) as a function of how many millimoles of HCl are added.
FIGS. 5A-5B plot similar data as described above with respect to FIGS. 4A-4B, but for a dibasic magnesium hypochlorite composition including 34% available chlorine by weight. […] As such, the dibasic magnesium hypochlorite is not capable of maintaining a relatively high pH for the solution, as are the MIB compositions. Such improved buffering capacity (i.e., the ability to maintain a higher pH for longer) greatly improves the stability of the bleach composition.

Trichloromelamine
Moisture Tolerance [1]: 3
Solution Clarity [1]: 1

O=c1nc([O-])n(Cl)c(=O)n1Cl.[Na+] [sodium dichloroisocyanurate]
exothermic decomposition reactions ([2]; temperature range of 10° C. to 200° C., FIG. 7C): no exothermic decomposition reactions

O=C1CN(Cl)C(=O)N1Cl [Dichlorohydantoin]
Bleach Stability [1]: 5
Moisture Tolerance [1]: 1
Solution Clarity [1]: 1

[Li+].[O-]Cl [Li(OCl)2, lithium hypochlorite]
Bleach Stability [1]: 1
Moisture Tolerance [1]: 3
Solution Clarity [1]: 5

[Ca+2].[O-]Cl.[O-]Cl [Calcium hypochlorite, calcium hypochlorite]
energy given off in exothermic decomposition ([2]; FIG. 7B): 401 J/g
decomposition reaction temperature ([2]; endothermic for MIB, exothermic for calcium hypochlorite): about 212 °C
Bleach Stability [1]: 3
Moisture Tolerance [1]: 3
Solution Clarity [1]: 3

sodium hypochlorite phosphate adduct [Na(OCl)2 phosphate adduct]
Bleach Stability [1]: 1
Moisture Tolerance [1]: 3
Solution Clarity [1]: 5

Mg(OCl)2.2Mg(OH)2 [dibasic magnesium hypochlorite]
hypochlorite remaining, open sample ([3]; 2 months, 80° F., 80% relative humidity, stored open): ~0 % by weight
initial hypochlorite concentration ([3]; before the 2 month storage, FIG. 3A): about 25 % by weight
hypochlorite (bleach) release as a function of HCl added ([4]; FIG. 4B / 5B): not significantly aided by acid addition
pH (buffering) recovery after HCl addition ([4]; HCl added at periodic intervals, FIG. 4A / 5A): significantly slower and less complete
